Measured values from patent publication US20230270753A1, “COMBINATIONS OF GABAA ALPHA 5 AGONISTS AND SV2A INHIBITORS AND METHODS OF USING IN THE TREATMENT OF COGNITIVE IMPAIRMENT” (AGENEBIO, INC., priority 2020, published 2023).

Columns and labels:
aMCI subjects = experiment: fMRI activity of medial temporal lobe subregions during the explicit 3-alternative forced choice task (Examples 2 and 3); format: in vivo, human
Procedure: A within-subjects trial of 8 weeks duration, involving 17 amnestic MCI (aMCI) subjects and 17 age-matched controls with a low dose treatment of levetiracetam is conducted. […] Age-matched control subjects treated with placebo serve as a further control. […] The […]

somatostatin in DG hilus = experiment: Somatostatin immunohistochemistry, hilar interneuron counts (Example 5); format: in vivo, rat; conditions: levetiracetam 10 mg/kg/day in osmotic minipumps for four weeks; aged-impaired rats
Text: Tissue was labeled with anti-SOM antiserum (Santa Cruz Biotechnology; cat. no. SC7819-P) using an established immunoperoxidase protocol and tissue sections were processed concurrently to minimize inter-replication variability (Haberman et al., 2009). The anti-SOM antiserum can detect somatostatin. Briefly, sections were washed in 0.1M phosphate-buffered saline (PBS) to remove cryoprotectant, and endogenous peroxidases were quenched in 0.3% H2O2 in PBS. After additional PBS washes, sections were blocked in 5% normal horse serum in PBS with 0.3% Triton. Sections were then incubated with primary antibody at a dilution of 1:1600 in PBS containing 0.15% Triton and 3% normal serum for 72 hours at 4° C. with agitation. […] The secondary antibody was detected with avidin-biotin complex (ABC Elite; Vector Laboratories Inc., Burlingame, Calif.) and the avidin-biotin complex was visualized with nickel-enhanced diaminobenzadine (Vector Laboratories Inc., Burlingame, Calif.). […]
Interneuron quantification was performed using a Zeiss Axioplan 2 microscope equipped with a motorized stage. […] Neuron counts were analyzed as the total number of hilar interneurons per hippocampal section for each rat.

[1] = system: reelin in Entorhinal Cortex (EC2); experiment: Reelin mRNA in situ hybridization in entorhinal cortex (Example 5); format: in vivo, rat

## CC[C@@H](C(N)=O)N1CCCC1=O [levetiracetam, (2S)-2-(2-oxopyrrolidin-1-yl)butanamide]
aMCI subjects; levetiracetam 62.5 mg BID for two weeks, aMCI subjects (N=20)
  DG/CA3 hyperactivity during memory judgments: does not significantly reduce
aMCI subjects; levetiracetam 125 mg twice a day for two weeks, aMCI subjects
  entorhinal cortex (EC) activity during memory judgments: increases EC activity
aMCI subjects; levetiracetam 125 mg twice a day for two weeks, vs placebo in same aMCI subjects
  DG/CA3 activity during lure stimuli correctly identified as similar: reduces DG/CA3 hyper-activity
aMCI subjects; levetiracetam 250 mg BID for two weeks, aMCI subjects (N=17)
  DG/CA3 hyperactivity during memory judgments: does not significantly reduce
Somatostatin in DG hilus
  levels of somatostatin in DG hilus (SOM-immunoreactive hilar neurons): restores the levels of somatostatin in DG hilus
[1]; levetiracetam 10 mg/kg/day for 28 days, AI rats
  reelin mRNA expression in the lateral entorhinal cortex vs AI-VEH: significantly increased the expression of reelin
[1]; levetiracetam 10 mg/kg/day in osmotic minipumps for four weeks, aged-impaired rats
  levels of reelin in Entorhinal Cortex (EC2): restores the levels of reelin in Entorhinal Cortex (EC2)
